This note sets out measurements from ChEMBL document CHEMBL1158047, “Lanostane triterpenoids from the Sri Lankan basidiomycete Ganoderma applanatum” (2006).

This assay relates to P388. The assay is described as follows: Cytotoxicity against mouse P388 cells. In kind it is functional.

The compound `CC(C)=CCC[C@@H](C(=O)O)[C@H]1[C@H](O)C[C@@]2(C)C3=CC[C@H]4C(C)(C)C(=O)CC[C@]4(C)C3=CC[C@]12C` had an Activity of 237 µM.

Compound `CC(C(=O)O)[C@@H](C)C(=O)C[C@@H](C)[C@H]1CC[C@@]2(C)C3=C(CC[C@]12C)[C@@]1(C)CC[C@@H](OC(=O)CC(=O)O)C(C)(C)[C@@H]1CC3` (stereo not given in full) [CARBOXYACETYLQUERCINIC ACID] yielded an Activity of more than 125 µg/mL.

The compound `C/C(=C\CC[C@@H](C(=O)O)[C@H]1[C@H](O)C[C@@]2(C)C3=CC[C@H]4C(C)(C)[C@H](O)CC[C@]4(C)C3=CC[C@]12C)CO` had an Activity of more than 125 µg/mL.

In the case of `C=C(C(=O)C[C@@H](C)[C@H]1CC[C@@]2(C)C3=C(CC[C@]12C)[C@@]1(C)CC[C@@H](OC(=O)CC(=O)O)C(C)(C)[C@@H]1CC3)C(C)C(=O)O` (stereo not given in full), the Activity is more than 125 µg/mL.

For `CC(C)=CCC[C@@H](C(=O)O)[C@H]1[C@H](O)C[C@@]2(C)C3=CC[C@H]4C(C)(C)[C@H](O)CC[C@]4(C)C3=CC[C@]12C`, the Activity is more than 125 µg/mL.
